The conditions of series [1]: 298.15 K; 101.33 kPa; Liquid; Vibrating tube method.
Series [2] can be described thus: refractive index (Na D-line) (dimensionless). The settings on record: 298.15 K; 101.33 kPa; Liquid; Standard Abbe refractometry.

Molecules are shown by their SMILES. ± gives the expanded uncertainty stated by the source.

Experimental findings from the NIST ThermoML archive (doi:10.1021/je1001544) are described below.

Take `CCCCCC` [hexane]: in series [1], the mass density worked out at 655.19 ± 0.25 kg/m3. The refractive index in series [2] was 1.37234 ± 0.00037.

As for `c1ccccc1` [benzene], the mass density in series [1] was determined as 873.57 ± 0.1 kg/m3. Further, the refractive index in series [2] was found to be 1.49774 ± 0.00031.

As to `CCCCCCCC` [octane], the mass density in series [1] amounted to 698.6 ± 0.18 kg/m3. Moreover, the refractive index in series [2] is listed as 1.39519 ± 0.00033.

On to `CCCCCCC` [heptane], for which the mass density in series [1] is recorded as 679.56 ± 0.18 kg/m3. Moreover, in series [2], the refractive index amounted to 1.38515 ± 0.00033.

Take `CCCCCCCCC` [nonane]: in series [1], the mass density came to 713.99 ± 0.25 kg/m3. In series [2], the refractive index worked out at 1.40326 ± 0.00037.

Regarding `CCOS(=O)(=O)[O-].CCn1cc[n+](C)c1` [1-ethyl-3-methylimidazolium ethyl sulfate], the mass density in series [1] is 1237.23 ± 0.43 kg/m3. The refractive index in series [2] is listed as 1.4791 ± 0.00037.
